This is an account of results in patent US20150306096A1, “8'-HYDROXY-DIHYDROERGOTAMINE COMPOUNDS AND COMPOSITIONS” (MAP Pharmaceuticals, Inc., priority 2012, published 2015).

Like-named read-outs stand apart in the source and are kept apart here.

The conditions of data set [1]: cited from earlier work.
In data set [2] the target is T1, human Serotonin 5-HT1D receptor (Homo sapiens, UniProt P28221).
T1 construct: purchased Euroscreen
Description: GTPγS functional assay. The data set is classed as biochemical. As to conditions: read-out: Functional activity (agonist). As for the experimental part:
Functional profiling of agonist and antagonist activities of 8′-OH DHE on human Adrenergic α1D, Dopamine D2L, and Serotonin 5-HT1B, 5-HT1D, 5-HT1F, 5-HT3, 5-HT4e and 5-HT5A receptors (compared against the parent (DHE) molecule) was carried out as follows.
The SPA 35S-GTPγS tests were conducted with Euroscreen membrane preparations […]. The HTRF assays were conducted with recombinant cell lines. The receptor accession numbers, cellular background and reference compounds are as reported below in Table 10.
(3) 8′-OH DHE was tested for agonist and antagonist activity at the human Serotonin 5-HT1B and Serotonin 5-HT1D receptors using GTPγS assay (in triplicate) at the following nanomolar concentrations: […]
The assay procedure was carried out as follows. […] The plates were then centrifuged for 10 minutes at 2,000 rpm and counted for 1 min/well with a Perkin Elmer TopCount reader.
Agonist activity of the test compounds was expressed as a percentage of the activity of the reference agonist at its EC100 concentration. Antagonist activity of the test compounds was expressed as a percentage of the inhibition of the reference agonist activity at its EC80 concentration. Dose-response data from the test compounds were analyzed with XLfit (IDBS) software using nonlinear regression applied to a sigmoidal dose-response model and the following equation: […]

Data set [3] concerns Purinergic (P2X1/P2X2/P2X3/P2X4/P2X7). In words: Purinergic receptor QPatch patch clamp (agonist/antagonist). The data set is classed as cell-based, human. Particulars: P2X receptors, 30 and 100 μM. As for the experimental part:
Purinergic receptor studies were conducted to monitor activity of 8′-OH DHE against the P2X1, P2X2, P2X3, P2X4 and P2X7 receptors. Human recombinant purinergic receptor-expressing HEK293 cells were used, and receptor activity was evaluated at RT using QPatch HT® (Sophion Bioscience A/S, Denmark) automatic parallel patch clamp system. The test 8′-OH DHE compound was evaluated in both agonist and antagonist modes at 30 and 100 μM. Each concentration was tested in triplicate.
A general note: The patch-clamp technique gives a direct electrical read-out from membranes.

Another data set deals with Calcitonin (AM1/AM2). In words: cAMP HTRF assay. The data set is classed as cell-based, human. On the procedure:
(§1) Additional receptor agonist/agonist activity assessments were performed using the 8′-OH DHE test compound. Table 12 contains a summary of the cell lines (CHO-K1/HEK293 transfected with relevant human receptor) and the assays performed to detect any agonist or antagonist activity.
(§2) Cells expressing the human recombinant receptor of interest were grown in media without antibiotic and detached by gentle flushing with PBS-EDTA (5 mM EDTA), recovered by centrifugation and resuspended in assay buffer (KRH: 5 mM KCl, 1.25 mM MgSO4, 124 mM NaCl, 25 mM HEPES, 13.3 mM glucose, 1.25 mM KH2PO4, 1.45 mM CaCl2, 0.5 g/L BSA). Dose response curves were performed in parallel with the reference compounds. For agonist tests (96-well plates), 12 μL of cells was mixed with 12 μL of the test 8′-OH DHE compound at increasing concentrations and then incubated for 30 minutes at RT. Lysis buffer was added and after one hour incubation, cAMP concentrations were determined according to the manufacturer specification with the HTRF kit. For antagonist tests (96-well plates), 12 μL of cells was mixed with 6 μL of the test 8′-OH DHE compound at increasing concentrations and then incubated for 10 minutes. […] Lysis buffer was added and after 1 hour incubation, cAMP concentrations were determined according to the manufacturer specification, with the HTRF kit. […]
On the technique in general: TR-FRET usually uses a lanthanide donor and a delayed reading to cut background.

For a further data set, the target named is T2, Adenosine A2a (Homo sapiens, UniProt P29274).
T2 construct: expressed in transfected cells; host or cells: HEK293
T2 sequence (P29274 whole entry): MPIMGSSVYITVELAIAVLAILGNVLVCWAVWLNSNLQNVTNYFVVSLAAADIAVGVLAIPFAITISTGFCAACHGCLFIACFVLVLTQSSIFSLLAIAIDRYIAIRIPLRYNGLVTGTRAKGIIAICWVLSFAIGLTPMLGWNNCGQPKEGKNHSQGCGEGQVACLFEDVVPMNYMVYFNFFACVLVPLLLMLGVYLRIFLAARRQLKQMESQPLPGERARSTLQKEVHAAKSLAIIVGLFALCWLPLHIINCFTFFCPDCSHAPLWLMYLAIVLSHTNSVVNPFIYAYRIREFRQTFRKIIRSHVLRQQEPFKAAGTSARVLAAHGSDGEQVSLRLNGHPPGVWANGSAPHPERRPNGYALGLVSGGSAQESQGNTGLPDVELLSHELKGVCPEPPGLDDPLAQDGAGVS
In words: cAMP HTRF assay. Type of data set: cell-based. As for the experimental part:
as §1, §2

T1 sequence (P28221 whole entry): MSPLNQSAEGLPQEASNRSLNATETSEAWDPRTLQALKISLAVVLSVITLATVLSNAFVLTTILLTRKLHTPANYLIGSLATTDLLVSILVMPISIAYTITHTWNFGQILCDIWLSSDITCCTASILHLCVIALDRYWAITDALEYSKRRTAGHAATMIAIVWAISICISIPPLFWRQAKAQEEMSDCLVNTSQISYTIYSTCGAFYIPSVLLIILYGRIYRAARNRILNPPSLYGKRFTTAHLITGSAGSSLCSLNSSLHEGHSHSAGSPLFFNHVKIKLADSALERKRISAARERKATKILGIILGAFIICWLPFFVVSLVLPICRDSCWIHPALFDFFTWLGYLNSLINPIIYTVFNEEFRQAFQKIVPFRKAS

One may read the bioavailability as the share of a dose that reaches the circulation, judged against a reference dose that is usually intravenous. Take `CN1C[C@H](C(=O)N[C@]2(C)O[C@@]3(O)[C@@H]4CCCN4C(=O)[C@H](Cc4ccccc4)N3C2=O)C[C@@H]2c3cccc4[nH]cc(c34)C[C@H]21` [DHE, Dihydroergotamine]: the “fraction of dose extracted in the urine” value in data set [1] (IM administered dose) is recorded as 6-7%. For the same molecule, the bioavailability is given as 100% in data set [1] (IM) and “about 40%” in data set [1] (IN administration). Besides, the oral bioavailability in data set [1] (oral) is reported as 1-3%.
Turning to `CN1C[C@H](C(=O)N[C@]2(C)O[C@@]3(O)[C@@H]4CCC(O)N4C(=O)[C@H](Cc4ccccc4)N3C2=O)C[C@@H]2c3cccc4[nH]cc(c34)C[C@H]21` (some centres unmarked) [8′-OH DHE, 8′-Hydroxy-Dihydroergotamine], the EC50 in data set [2] was 0.49 nM. The “Activity (Agonism: EC50; Antagonism: IC50)” value (in data set [3]; in the data set with Calcitonin (AM1/AM2); at Adenosine A2a) was “Inactive” throughout.
